Source: publication PMC6598531, “Appraisal of anti-protozoan activity of nitroaromatic benzenesulfonamides inhibiting carbonic anhydrases from Trypanosoma cruzi and Leishmania donovani” (Journal of Enzyme Inhibition and Medicinal Chemistry, 2019)
Values after ≈ are worked out from the molar mass of the structure shown. Like-named read-outs stand apart in the source and are kept apart here.

Experiments:
in vitro = conditions: mouse, RAW 264.7 macrophages
L. amazonensis = assay: growth inhibition of L. amazonensis promastigotes (resazurin); type: cell-based; conditions: Leishmania amazonensis, 48 h; for MIC: promastigotes, 28 °C
L. infantum = assay: growth inhibition of L. infantum promastigotes (resazurin); type: cell-based; conditions: Leishmania infantum, 48 h; for MIC: promastigotes, 28 °C
T. cruzi Dm 28c = assay: growth inhibition of T. cruzi Dm28c epimastigotes (resazurin); type: cell-based; conditions: Trypanosoma cruzi, 48 h; for MIC: epimastigotes, 28 °C
T. cruzi Y = assay: growth inhibition of T. cruzi Y epimastigotes (resazurin); type: cell-based; conditions: Trypanosoma cruzi, 48 h, 28 °C
hCA II = hCA II (Homo sapiens, UniProt P00918); assay: stopped flow CO2 hydrase assay, hCA II inhibition
hCA I = hCA I (Homo sapiens, UniProt P00915); assay: stopped flow CO2 hydrase assay, hCA I inhibition
hCA I, sequence (P00915 whole entry): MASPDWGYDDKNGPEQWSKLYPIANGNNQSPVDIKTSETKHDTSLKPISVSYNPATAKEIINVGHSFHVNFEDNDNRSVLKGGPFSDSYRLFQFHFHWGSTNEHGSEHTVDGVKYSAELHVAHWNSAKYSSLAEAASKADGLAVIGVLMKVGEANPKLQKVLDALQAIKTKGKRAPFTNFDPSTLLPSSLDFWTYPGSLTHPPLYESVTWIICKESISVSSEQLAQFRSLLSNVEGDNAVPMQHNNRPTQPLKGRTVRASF

LdcCA = LdcCA (Leishmania infantum, UniProt A4HSV2); assay: biochemical
LdcCA, sequence (A4HSV2 1-306): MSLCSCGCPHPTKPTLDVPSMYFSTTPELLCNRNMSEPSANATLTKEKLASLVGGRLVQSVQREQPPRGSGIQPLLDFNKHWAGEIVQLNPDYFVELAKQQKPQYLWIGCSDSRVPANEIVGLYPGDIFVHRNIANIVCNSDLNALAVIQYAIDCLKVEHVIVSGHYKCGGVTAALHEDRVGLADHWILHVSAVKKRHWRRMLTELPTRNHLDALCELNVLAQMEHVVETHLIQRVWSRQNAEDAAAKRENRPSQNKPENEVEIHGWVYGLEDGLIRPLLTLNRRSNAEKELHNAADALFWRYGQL

[1] = concentration which reduced the number of promastigotes by 50%
[2] = read-out: KI hCA II, stopped flow CO2 hydrase assay, mean from three assays
[3] = read-out: KI hCA I, stopped flow CO2 hydrase assay, mean from three assays

Row | Structure (SMILES) | CC50 at 48 h (in vitro) [µM] | IC50 (L. amazonensis; [1]) [nM] | MIC (L. amazonensis) [µM] | IC50 (L. infantum; [1]) [nM] | MIC (L. infantum) [µM] | IC50 (T. cruzi Dm 28c; concentration which reduced the proliferation of epimastigotes by 50%) [µM] | MIC (T. cruzi Dm 28c) [µM] | MIC (T. cruzi Y) [µM] | Ki (hCA II; [2]) [nM] | Ki (hCA I; [3]) [µM] | SI (KI1/KI2) CA I/LdcCA (LdcCA) | SI (KI1/KI2) CA II/LdcCA (LdcCA) | Ki (LdcCA; read-out: KI LdCA) [nM] | Ki (LdcCA) [nM] | Ki (hCA I) [µM] | Ki (hCA II) [nM]
1 | C[C@@H]1[C@H](O)[C@@H](C)/C=C/C=C/C=C/C=C/C=C/C=C/C=C/[C@H](O[C@@H]2O[C@H](C)[C@@H](O)[C@H](N)[C@@H]2O)C[C@@H]2O[C@](O)(C[C@@H](O)C[C@@H](O)[C@H](O)CC[C@@H](O)C[C@@H](O)CC(=O)O[C@H]1C)C[C@H](O)[C@H]2C(=O)O [Amp, amphotericin B, reference compound] | 1 | 1650 ± 280 | 8 (≈ 7.39 µg/mL) | 1770 ± 350 | 8 (≈ 7.39 µg/mL) |  |  |  |  |  |  |  |  |  |  | 
2 | O=C(Cn1ccnc1[N+](=O)[O-])NCc1ccccc1 [Bzn, benznidazole, reference compound] | 115 ± 9.48 |  |  |  |  | 16.6 ± 1.51 | 32 (≈ 8.33 µg/mL) | 32 (≈ 8.33 µg/mL) |  |  |  |  |  |  |  | 
3 | NS(=O)(=O)c1ccc(O)c([N+](=O)[O-])c1 [Compound 4] | 97.7 ± 11.1 |  | > 400 |  | > 400 |  | > 256 | > 256 | 240 | 0.91 | 4.3 | 1.1 | 210 |  |  | 
4 | NS(=O)(=O)c1cc([N+](=O)[O-])c(OC(=O)c2ccccc2)c([N+](=O)[O-])c1 [Compound 7] |  |  |  |  |  |  |  |  | 840 | 4.79 | 1.0 | 0.2 |  | 4680 |  | 
5 | Nc1cc(S(N)(=O)=O)cc([N+](=O)[O-])c1O [Compound 8, 3-amino-4-hydroxy-5-nitro-benzenesulfonamide] | > 256 |  | > 400 |  | > 400 |  | > 256 | > 256 | 610 | 6.18 | 13.4 | 1.3 | 460 |  |  | 
6 | NS(=O)(=O)c1cc(NC(=O)c2ccccc2)c(OC(=O)c2ccccc2)c([N+](=O)[O-])c1 [Compound 9] |  |  |  |  |  |  |  |  | 390 | 1.38 | 0.4 | 0.1 | 3870 |  |  | 
7 | NS(=O)(=O)c1cc(NC(=O)c2ccc(F)cc2)c(OC(=O)c2ccc(F)cc2)c([N+](=O)[O-])c1 [Compound 10] | 180 ± 21.3 |  | > 400 |  | > 400 |  | > 256 | > 256 | 460 | 2.92 | 0.3 | 0.1 | 8490 |  |  | 
8 | Cc1cc(C)[n+](-c2cc(S(N)(=O)=O)cc([N+](=O)[O-])c2O)c(C)c1 [Compound 11] | > 256 |  | > 400 |  | > 400 |  | > 256 | > 256 | 1810 |  | >7.6 | 0.3 | 6570 |  | > 50 | 
9 | NS(=O)(=O)c1cc(O)c(O)c([N+](=O)[O-])c1 [Compound 12] |  |  |  |  |  |  |  |  | 640 | 6.21 | 15.9 | 1.6 | 390 |  |  | 
10 | NS(=O)(=O)c1cc(NC(=O)Nc2ccccc2)c(O)c([N+](=O)[O-])c1 [Compound 13] |  |  |  |  |  |  |  |  | 2780 |  | >47.2 | 2.6 | 1060 |  |  | 
11 | NS(=O)(=O)c1cc(NC(=O)Nc2ccc(F)cc2)c(O)c([N+](=O)[O-])c1 [Compound 14] |  |  |  |  |  |  |  |  | 530 | 5.39 | 5.5 | 0.5 | 980 |  |  | 
12 | NS(=O)(=O)c1cc(NC(=O)Nc2ccc(C(F)(F)F)cc2)c(O)c([N+](=O)[O-])c1 [Compound 15] |  |  |  |  |  |  |  |  |  | 5.2 | 2.2 | 0.1 | 2340 |  |  | 240
13 | Cc1cc(NC(=O)Nc2cc(S(N)(=O)=O)cc([N+](=O)[O-])c2O)ccc1F [Compound 16] |  |  |  |  |  |  |  |  | 210 | 7.58 | 2.6 | 0.1 | 2960 |  |  | 
14 | NS(=O)(=O)c1cc(NC(=O)Nc2c(F)c(F)c(F)c(F)c2F)c(O)c([N+](=O)[O-])c1 [Compound 17] | > 256 |  | > 400 |  | > 400 |  | > 256 | > 256 | 270 | 0.69 | 0.5 | 0.2 | 1360 |  |  | 
15 | COc1cccc(NC(=O)Nc2cc(S(N)(=O)=O)cc([N+](=O)[O-])c2O)c1 [Compound 18] | > 256 |  | > 400 |  | > 400 |  | > 256 | > 256 | 5150 | 8.21 | 8.6 | 5.4 | 950 |  |  | 
16 | NS(=O)(=O)c1cc(NC(=O)Nc2ccc3c(c2)OCO3)c(O)c([N+](=O)[O-])c1 [Compound 19] | 173 ± 10.4 |  | > 400 |  | > 400 |  | > 256 | > 256 | 4330 |  | >24.6 | 2.1 | 2030 |  |  | 
17 | Cc1cc(C)cc(NC(=O)Nc2cc(S(N)(=O)=O)cc([N+](=O)[O-])c2O)c1 [Compound 20] |  |  |  |  |  |  |  |  | 450 | 8.33 | 4.5 | 0.2 | 1860 |  |  | 
18 | NS(=O)(=O)c1cc(NC(=O)Nc2cc(C(F)(F)F)cc(C(F)(F)F)c2)c(O)c([N+](=O)[O-])c1 [Compound 21] | > 256 |  | > 400 |  | > 400 |  | > 256 | > 256 | 1720 | 5.99 | 1.6 | 0.5 | 3650 |  |  | 
19 | NS(=O)(=O)c1cc(NC(=O)NCCc2ccccc2)c(O)c([N+](=O)[O-])c1 [Compound 22] |  |  |  |  |  |  |  |  | 3080 | 9.29 | 10.8 | 3.6 | 860 |  |  | 
20 | NS(=O)(=O)c1cc(NC(=O)NCc2ccco2)c(O)c([N+](=O)[O-])c1 [Compound 23] |  |  |  |  |  |  |  |  | 2530 |  | >49.0 | 2.5 | 1020 |  |  | 
21 | CC(=O)OC[C@@H]1O[C@@H](OC(C)=O)[C@@H](NC(=O)Nc2cc(S(N)(=O)=O)cc([N+](=O)[O-])c2O)[C@H](OC(C)=O)[C@H]1OC(C)=O [Compound 24] | > 256 |  | > 400 |  | > 400 |  | > 256 | > 256 | 1890 | 5.67 | 1.6 | 0.5 | 3640 |  |  | 
22 | NS(=O)(=O)c1cc(NC(=O)N[C@@H]2C(O)O[C@@H](CO)[C@H](O)[C@H]2O)c(O)c([N+](=O)[O-])c1 (stereo partly shown) [Compound 25] |  |  |  |  |  |  |  |  | 860 | 4.92 | 1.7 | 0.3 | 2970 |  |  | 
